Tests used:
human iNKT cell clones = assay: Cytokine responses of iNKT cell clones, Hela-CD1d cells compared with monocyte-derived DC as APC; assay type: cell-based; conditions: limited analog concentrations
Text: CD1d-transfected Hela cells might not be representative of the presentation by DCs, so we performed a comparative analysis, with more limited analog concentrations, between Hela-CD1d cells and monocyte-derived DC (Supplementary Figure S5). […] However we observed a higher cytokine levels produced upon stimulation with Hela cells, which can be explained by a higher CD1d expression.
Supplementary file pone.0014374.s005.tif: Figure S5 Comparison of cytokine responses of human iNKT cell clones between CD1d-transfected HeLa cells and Dendritic Cells, with a limited range of analog concentrations. CD1d-transfected HeLa cells (black bars) and monocyte-derived DCs (white bars) were incubated overnight in parallel with increasing concentrations of KRN7000, C20:2 (tested from left to right at 0.1, 1, 10 and 100 nM,) and higher concentrations of other analogs (10, 100 nM, 1 and 10 µM), then used as APC for iNKT cell stimulation. After 24 h of co-culture, supernatants were harvested, and cytokine levels were measured by ELISA. The sensitivity of detection was 27.4 pg/mL for IL-4 and 82.3 pg/mL for IL-13 and IFNγ. The data shown were generated with a CD4+ iNKT cell clone (HDD3) and a double negative (DN, HDE3). (0.12 MB TIF) Click here for additional data file.

[1] = tested on: iNKT cells in PBMCs from healthy donors; assay: Ex vivo staining of PBMCs from healthy donors with analog-loaded hCD1d tetramers; assay type: cell-based, human
Text: Our panel of clones might be limited to iNKT cells able to expand upon PHA stimulation and might be representative of a fraction only of the iNKT cell repertoire. […] The frequencies of iNKT cells measured using tetramers loaded with N-aromatic branched analogs were lower in some or all PBMCs tested. A lower detection might be explained by weaker efficiency of staining, since lower MFI values were also seen with iNKT cell clones stained with tetramers loaded with these glycolipids.
Figure 4 Ex vivo analysis of PBMC with CD1d tetramers loaded with αGalCer analogs. (A) Flow cytometric analyses were performed after labeling of PBMCs from healthy donors with hCD1d tetramers loaded with each of the indicated glycolipids. Representative dot plots generated with PBMCs from one normal donor, with the analog tested indicated at the top of each plot and the percentages of tetramer^+ CD3^+ cells indicated in the top right quadrants. The dot plots show events gating as live lymphocytes (PI negative and FSC/SSC gated lymphocytes). (B) Comparison of tetramer^+ cell frequencies in PBMC from three different donors. The frequencies of cells specifically stained with hCD1d tetramers loaded with the indicated glycolipids (or vehicle (Veh) only (i.e., DMSO)) are shown as the percentage of total iNKT cells (i.e., cells staining with mAb 6B11^+, specific for the invariant TCRα chain of iNKT cells). Similar results were obtained for three additional PBMC donors (not shown). TEXT PRINTED IN THE PICTURE: (A) Vehicle: 0.03 | (A) KRN7000: 0.56 | (A) C20:2: 0.52 | (A) C20:4: 0.58 | (A) Tol: 0.16 | (A) DFB: 0.56 | (A) BB: 0.29 | (A) AD: 0.49 DOUBTS OF THE COPYIST ABOUT THIS PICTURE: Panel A: the numbers in the upper right quadrants are printed without a measure or unit; only the axes (hCD1d tetramer / CD3) are printed

Human iNKT TCRs = Human iNKT TCRs (Homo sapiens, UniProt A0A075B6N4+A0A0B4J240+P15813); assay: Equilibrium binding of analog-loaded hCD1d tetramers to iNKT cell clones
Text: For flow cytometric analysis, 6B11 (Vα24Jα18 specific) and mAbs specific for human CD3, CD4, CD8α, CD19, CD40L (CD154), CD56, CD69, GM-CSF & IFNγ were obtained from BD Biosciences. IL-4 and IL-13 specific mAbs were from Biolegend. Vα24 (C15) and Vβ11 (C21) specific mAb were from Immunotech. For antibody blocking in culture assays, non-specific isotype matched control, IL-2, IFNγ, IL-12p70 and CD40L specific mAbs without preservatives were obtained from BD Biosciences and IL-18 specific mAb from Medical & Biological Laboratories (MBL, Nagoya, Japan). Phycoerythrin and allophycocyanin labeled human CD1d tetramers were prepared in our laboratory as previously described. Curves of tetramer equilibrium binding constants and graphs were plotted using the Graphpad Prism Software (Version 5). KD values were calculated using the function non-linear fit (hyperbola, one binding site).
(§1) To characterize in more detail the iNKT cell TCR recognition of αGalCer analogs presented by human CD1d, we generated soluble and fluorescent tetrameric hCD1d molecules loaded with each of the glycolipid analogs. […] This was similar to the previously reported failure of mouse CD1d tetramer loaded with lysosulfatide to bind detectably to murine non-invariant and sulfatide specific NKT cells, despite a clear reactivity to this lipid upon presentation by APCs; [40]. […] To quantitate their binding avidities to iNKT cell TCRs, we used titration of analog-loaded hCD1d tetramers to determine equilibrium dissociation constants (KD), which are inversely proportional to avidity (Figure 3A and 3B).
(§2) Figure 3 Characterization of human iNKT cell TCR interactions with analog-loaded tetramers. (A) iNKT cell clones were stained with titrated amounts of hCD1d tetramers loaded with the indicated glycolipids (abbreviations as in legend to Figure 1), and the measured MFI values are plotted for selected glycolipids. (B) The equilibrium dissociation constants (KD, inversely proportional to TCR avidity) were determined as the concentrations of tetramers required to yield 50% of maximal binding. Data shown were obtained using the CD4^+ iNKT cell clone HDD3, and similar results (not shown) were obtained with a second CD4^+ clone (HDD11) and a CD4^−8^− double negative iNKT cell clone (HDE3). (C) Analysis of iNKT cell clones labeled with 20 nM of hCD1d tetramers which were loaded with variable excesses of analog to constant hCD1d (25 to 1000 fold molar excess of glycolipid to hCD1d protein). The measured MFI values were normalized as the percent of the maximum staining intensity obtained with each analog loaded tetramer. Data presented were generated with HDD3 (CD4+) iNKT cell clone, and similar results (not shown) were obtained with HDE3 (DN) clone.

human iNKT cells = conditions: cited from earlier work
hCD1d = target: T1, hCD1d (Homo sapiens, UniProt P15813); assay: Loading of hCD1d tetramers with variable glycolipid to CD1d ratios; assay type: binding; conditions: 20 nM tetramers, 25 to 1000 fold molar excess of glycolipid to hCD1d, HDD3 clone
T1 construct: we generated soluble and fluorescent tetrameric hCD1d molecules loaded with each of the glycolipid analogs; made in house
Text: as §1, §2

Sequence of Human iNKT TCRs (P15813 20-301): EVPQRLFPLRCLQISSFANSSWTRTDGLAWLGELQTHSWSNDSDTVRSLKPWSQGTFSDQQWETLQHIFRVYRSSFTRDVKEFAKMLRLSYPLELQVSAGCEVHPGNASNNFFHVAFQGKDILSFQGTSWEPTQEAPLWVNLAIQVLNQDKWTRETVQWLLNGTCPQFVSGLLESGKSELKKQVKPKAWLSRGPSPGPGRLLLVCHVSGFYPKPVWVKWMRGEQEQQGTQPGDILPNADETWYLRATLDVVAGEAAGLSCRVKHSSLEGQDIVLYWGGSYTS
Sequence of Human iNKT TCRs (P01848 whole entry, further chain): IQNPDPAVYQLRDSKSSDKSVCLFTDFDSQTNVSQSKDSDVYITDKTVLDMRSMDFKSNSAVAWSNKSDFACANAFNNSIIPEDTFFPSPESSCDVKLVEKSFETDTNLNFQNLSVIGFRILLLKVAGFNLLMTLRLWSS
Sequence of Human iNKT TCRs (A0A0B4J240 22-114): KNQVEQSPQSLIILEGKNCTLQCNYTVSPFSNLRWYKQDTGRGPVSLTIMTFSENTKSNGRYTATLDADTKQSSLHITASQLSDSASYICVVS
Sequence of Human iNKT TCRs (P61769 21-119, further chain): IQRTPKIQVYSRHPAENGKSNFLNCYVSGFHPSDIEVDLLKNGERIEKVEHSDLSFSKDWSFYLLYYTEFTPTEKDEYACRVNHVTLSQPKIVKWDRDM
Sequence of Human iNKT TCRs (A0A075B6N4 22-114): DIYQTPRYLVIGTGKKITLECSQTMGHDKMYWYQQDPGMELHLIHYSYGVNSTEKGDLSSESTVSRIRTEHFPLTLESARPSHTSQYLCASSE
T1 sequence (P15813 20-301 limits assumed): as the sequence (P15813 20-301) above
T1 sequence (P61769 21-119 partner): as the sequence (P61769 21-119, further chain) above

CCCCC/C=C\C/C=C\CCCCCCCCCC(=O)N[C@@H](CO[C@H]1O[C@H](CO)[C@H](O)[C@H](O)[C@H]1O)[C@H](O)[C@H](O)CCCCCCCCCCCCCC [C20:2]
agonist strength with Hela-CD1d cells and DC (human iNKT cell clones): strong agonists | iNKT cell frequencies with loaded tetramers versus staining with Vα24Jα18 specific Ab 6B11 [1]: Comparable iNKT cell frequencies | avidity of human iNKT TCRs for analog in complex with hCD1d (Human iNKT TCRs): strong avidity | agonist activity for human iNKT cells (human iNKT cells): strong agonist

CCCCC/C=C\C/C=C\C/C=C\C/C=C\CCCC(=O)N[C@@H](CO[C@H]1O[C@H](CO)[C@H](O)[C@H](O)[C@H]1O)[C@H](O)[C@H](O)CCCCCCCCCCCCCC [C20:4]
iNKT cell frequencies with loaded tetramers versus staining with Vα24Jα18 specific Ab 6B11 [1]: Comparable iNKT cell frequencies | avidity of human iNKT TCRs for analog in complex with hCD1d (Human iNKT TCRs): strong avidity

CCCCCCCCCCCCCCCCCCCCCCCCCC(=O)N[C@@H](CO[C@H]1O[C@H](CO)[C@H](O)[C@H](O)[C@H]1O)[C@H](O)[C@H](O)CCCCCCCCCCCCCC [KRN7000, reference compound]
agonist strength with Hela-CD1d cells and DC (human iNKT cell clones): strong agonists | lipid excess at which tetramers were efficiently loaded (hCD1d): 25–50 fold | iNKT cell frequencies with loaded tetramers versus staining with Vα24Jα18 specific Ab 6B11 [1]: Comparable iNKT cell frequencies | avidity of human iNKT TCRs for analog in complex with hCD1d (Human iNKT TCRs): strong avidity

Source: paper PMC3003687, “α-Galactosylceramide Analogs with Weak Agonist Activity for Human iNKT Cells Define New Candidate Anti-Inflammatory Agents” (PLoS ONE, 2010)
